Assays:
wildtype KY160 tobacco = experiment: Cross tolerance test, wildtype tobacco; format: in vivo, Nicotiana tabacum
Source text: Two to four T0 individuals surviving high rates of 2,4-D and fluroxypyr were saved from each event and allowed to self fertilize in the greenhouse to give rise to T1 seed. The T1 seed was stratified, and sown into selection trays much like that of Arabidopsis (Example 7.4), followed by selective removal of untransformed nulls in this segregating population with 560 g ai/ha glufosinate (PAT gene selection). Survivors were transferred to individual 3-inch pots in the greenhouse. These lines provided high levels of resistance to 2,4-D in the T0 generation. Improved consistency of response is anticipated in T1 plants not having come directly from tissue culture. These plants were compared against wildtype KY160 tobacco. All plants were sprayed with a track sprayer set at 187 L/ha. The plants were sprayed from a range of 140-2240 g ac/ha 2,4-D dimethylamine salt (DMA), 70-1120 g ace/ha triclopyr or 35-560 g ae/ha fluroxypyr. All applications were formulated in water. Each treatment was replicated 2-4 times. Plants were evaluated at 3 and 14 days after treatment. Plants were assigned injury rating with respect to stunting, chlorosis, and necrosis. The T1 generation is segregating, so some variable response is expected due to difference in zygosity.

[1] = system: AAD-1 (v3) (pDAB721) T2 tobacco plants; experiment: Auxinic herbicide cross tolerance of stacked tobacco, AAD-1 T2; format: in vivo, Nicotiana tabacum
Description: (§1) Homozygous AAD-12 (v1) (pDAS1580) and AAD-1 (v3) (pDAB721) plants (see PCT/US2005/014737 for the latter) were both reciprocally crossed and F1 seed was collected. The F1 seed from two reciprocal crosses of each gene were stratified and treated 4 reps of each cross were treated under the same spray regimen as used for the other testing with one of the following treatments: 70, 140, 280 g ac/ha fluroxypyr (selective for the AAD-12 (v1) gene); 280, 560, 1120 g ae/ha R-dichloroprop (selective for the AAD-1 (v3) gene); or 560, 1120, 2240 g ae/ha 2,4-D DMA (to confirm 2,4-D tolerance). Homozygous T2 plants of each gene were also planted for use as controls. Plants were graded at 3 and 14 DAT.

wildtype tobacco = experiment: Auxinic herbicide cross tolerance of stacked tobacco, wildtype; format: in vivo, Nicotiana tabacum; settings: KY160 wildtype control
Description: as §1

[2] = system: Roundup Ready (RR) control corn hybrid (2P782); experiment: Field tolerance of corn: visual injury and brace root injury, control hybrid; format: in vivo, Zea mays; settings: for % Visual Injury 14DAT: 2P782 control; for visual injury: 14 DAT
Description: Seeds were planted with cone planter on 40-inch row spacing at Wayside and 30 inch spacing at Fowler. […] Herbicide treatments were 2,4-D (dimethylamine salt) at 1120, 2240 and 4480 g ae/ha, triclopyr at 840 g ae/ha, fluroxypyr at 280 g ae/ha and an untreated control. The AAD-12 (v1) events contained the AHAS gene as a selectable marker. The F2 corn events were segregating so the AAD-12 (v1) plants were treated with imazethapyr at 70 g ae/ha to remove the null plants. Herbicide treatments were applied when corn reached the V6 stage using compressed air backpack sprayer delivering 187 L/ha carrier volume at 130-200 kpa pressure. Visual injury ratings were taken at 7, 14 and 21 days after treatment.

[3] = system: AAD-12 (v1) tobacco lines (pDAS1580-[1]-018.001, pDAS1580-[1]-004.001, pDAS1580-[1]-020.016); experiment: Field tolerance of tobacco, AAD-12 lines; format: in vivo, Nicotiana tabacum
Description: Field level tolerance trials were conducted on three AAD-12 (v1) lines (events pDAS1580-[1]-018.001, pDAS1580-[1]-004.001 and pDAS1580-[1]-020.016) and one wild-type line (KY160) at field stations in Indiana and Mississippi. Tobacco transplants were grown in the greenhouse by planting T1 seed in 72 well transplant flats (Hummert International) containing Metro 360 media according to growing conditions indicated above. The null plants were selectively removed by Liberty selection as previously described. The transplant plants were transported to the field stations and planted at either 14 or 24 inches apart using industrial vegetable planters. Drip irrigation at the Mississippi site and overhead irrigation at the Indiana site were used to keep plants growing vigorously.
The experimental design was a split plot design with 4 replications. The main plot was herbicide treatment and the sub-plot was tobacco line. The herbicide treatments were 2,4-D (dimethylamine salt) at 280, 560, 1120, 2240 and 4480 g ac/ha, triclopyr at 840 g ae/ha, fluroxypyr at 280 g ac/ha and an untreated control. Plots were one row by 25-30 ft. Herbicide treatments were applied 3-4 weeks after transplanting using compressed air backpack sprayer delivering 187 L/ha carrier volume at 130-200 kpa pressure. Visual rating of injury, growth inhibition, and epinasty were taken at 7, 14 and 21 days after treatment.

[4] = system: wild-type canola (Nex710); experiment: Field tolerance of canola, wild-type; format: in vivo, Brassica napus; settings: for % Visual Injury at 14 DAT: Wild Type (Nex710)
Description: Field level tolerance trial was conducted on two AAD-12 (v1) events 3759(20)018.001 and 3759(18)030.001 and a wild-type canola (Nex710) in Fowler, Ind. The experimental design was a randomized complete block design with 3 replications. Herbicide treatments were 2,4-D (dimethylamine salt) at 280, 560, 1120, 2240 and 4480 g ac/ha, triclopyr at 840 g ae/ha, fluroxypyr at 280 g ae/ha and an untreated control. Within each herbicide treatment, single 20 ft row/event for event 3759(18)030.0011, 3759(18)018.001 and wild-type line (Nex710) were planted with a 4 row drill on 8 inch row spacing. Herbicide treatments were applied when canola reached the 4-6 leaf stage using compressed air backpack sprayer delivering 187 L/ha carrier volume at 130-200 kpa pressure. Visual injury ratings were taken at 7, 14 and 21 days after application.

[5] = 2× rate of triclopyr (840 g ae/ha), 14 DAT

CNC.O=C(O)COc1ccc(Cl)cc1Cl [2,4-D DMA]
Average % Injury of Replicates 14 DAT (wildtype KY160 tobacco; 140 g ae/ha): 45%
Average % Injury of Replicates 14 DAT (wildtype KY160 tobacco; 560 g ae/ha): 60%
Average % Injury of Replicates 14 DAT (wildtype KY160 tobacco; 2240 g ae/ha): 73%

C[C@@H](Oc1ccc(Cl)cc1Cl)C(=O)O [(R)-dichlorprop, R-2,4-dichlorophenoxypropionic acid]
Average % injury 14 DAT ([1]; 280 g ae/ha): 0%
Average % injury 14 DAT ([1]; 560 g ae/ha): 0%
Average % injury 14 DAT ([1]; 1120 g ae/ha): 3%
Average % injury 14 DAT (wildtype tobacco; 280 g ae/ha): 25%
Average % injury 14 DAT (wildtype tobacco; 560 g ae/ha): 60%
Average % injury 14 DAT (wildtype tobacco; 1120 g ae/ha): 80%

O=C(O)COc1nc(Cl)c(Cl)cc1Cl [triclopyr]
% Visual Injury 14DAT ([2]; 840 g ae/ha): 31%
visual injury ([2]; 2× rate of triclopyr (840 g ae/ha)): 31%
average brace root injury score (0-10 scale) ([2]; Triclopyr at 840 g ae/ha, 28DAT): 7
Brace Root Injury Rating (0-10 scale) 28DAT ([2]; Wild-type NK603, 840 g ae/ha): 7
average injury across the three lines [3, 5]: 5%
Average % Injury across locations at 14 DAT ([3]; pDAS1580-[1]-004.001, 840 GM AE/HA): 5%
Average % Injury across locations at 14 DAT ([3]; pDAS1580-[1]-018.001, 840 GM AE/HA): 4%
Average % Injury across locations at 14 DAT ([3]; pDAS1580-[1]-020.016, 840 GM AE/HA): 5%
visual injury [4, 5]: 25%
% Visual Injury at 14 DAT ([4]; 840 GM AE/HA): 25 cd %
Average % Injury of Replicates 14 DAT (wildtype KY160 tobacco; 70 g ae/ha): 40%
Average % Injury of Replicates 14 DAT (wildtype KY160 tobacco; 280 g ae/ha): 65%
Average % Injury of Replicates 14 DAT (wildtype KY160 tobacco; 1120 g ae/ha): 80%

O=C(O)COc1ccc(Cl)cc1Cl [2,4-D, 2,4-dichlorophenoxyacetic acid]
visual injury ([2]; 2,4-D at 4480 g ae/ha, V6 stage): 44%
% Visual Injury 14DAT ([2]; 1120 g ae/ha): 9%
% Visual Injury 14DAT ([2]; 2240 g ae/ha): 20%
% Visual Injury 14DAT ([2]; 4480 g ae/ha): 34%
brace root injury ([2]; 4480 g ae/ha of 2,4-D): severe brace root fusing and malformation
Brace Root Injury Rating (0-10 scale) 28DAT ([2]; Wild-type NK603, 1120 g ae/ha): 3
Brace Root Injury Rating (0-10 scale) 28DAT ([2]; Wild-type NK603, 2240 g ae/ha): 5
Brace Root Injury Rating (0-10 scale) 28DAT ([2]; Wild-type NK603, 4480 g ae/ha): 6
average injury ([3]; 2,4-D at the 2× rate, 14DAT): 1%
average injury ([3]; 2,4-D at the 4× rate, 14DAT): 4%
average injury ([3]; 2,4-D at the 8× rate, 14 DAT): 4%
Average % Injury across locations at 14 DAT ([3]; pDAS1580-[1]-004.001, 280 GM AE/HA): 0%
Average % Injury across locations at 14 DAT ([3]; pDAS1580-[1]-004.001, 560 GM AE/HA): 0%
Average % Injury across locations at 14 DAT ([3]; pDAS1580-[1]-004.001, 1120 GM AE/HA): 1%
Average % Injury across locations at 14 DAT ([3]; pDAS1580-[1]-004.001, 2240 GM AE/HA): 4%
Average % Injury across locations at 14 DAT ([3]; pDAS1580-[1]-004.001, 4480 GM AE/HA): 4%
Average % Injury across locations at 14 DAT ([3]; pDAS1580-[1]-018.001, 280 GM AE/HA): 0%
Average % Injury across locations at 14 DAT ([3]; pDAS1580-[1]-018.001, 560 GM AE/HA): 2%
Average % Injury across locations at 14 DAT ([3]; pDAS1580-[1]-018.001, 1120 GM AE/HA): 2%
Average % Injury across locations at 14 DAT ([3]; pDAS1580-[1]-018.001, 2240 GM AE/HA): 4%
Average % Injury across locations at 14 DAT ([3]; pDAS1580-[1]-018.001, 4480 GM AE/HA): 4%
Average % Injury across locations at 14 DAT ([3]; pDAS1580-[1]-020.016, 280 GM AE/HA): 0%
Average % Injury across locations at 14 DAT ([3]; pDAS1580-[1]-020.016, 560 GM AE/HA): 0%
Average % Injury across locations at 14 DAT ([3]; pDAS1580-[1]-020.016, 1120 GM AE/HA): 1%
Average % Injury across locations at 14 DAT ([3]; pDAS1580-[1]-020.016, 2240 GM AE/HA): 4%
Average % Injury across locations at 14 DAT ([3]; pDAS1580-[1]-020.016, 4480 GM AE/HA): 4%
Average % injury 14 DAT ([1]; 560 g ae/ha): 0%
Average % injury 14 DAT ([1]; 1120 g ae/ha): 4%
Average % injury 14 DAT ([1]; 2240 g ae/ha): 9%
visual injury ([4]; 2,4-D at 2240 g ae/ha (4× rate), 14DAT): 72%
% Visual Injury at 14 DAT ([4]; 280 GM AE/HA): 0 e %
% Visual Injury at 14 DAT ([4]; 560 GM AE/HA): 15 d %
% Visual Injury at 14 DAT ([4]; 1120 GM AE/HA): 33 bc %
% Visual Injury at 14 DAT ([4]; 2240 GM AE/HA): 48 a %
Average % injury 14 DAT (wildtype tobacco; 560 g ae/ha): 63%
Average % injury 14 DAT (wildtype tobacco; 1120 g ae/ha): 80%
Average % injury 14 DAT (wildtype tobacco; 2240 g ae/ha): 90%
